# Laboratory results published in US12435061B2 (priority 2020, dated 2025).
# Read-outs that look alike come from different tables or passages of the source.
# Tests used:
# [1] = minipig, in vivo
# Protocol: To assess PK profile of escalating doses of KM-023 administered via PO and IV routes. Animal care was carried out as described above. Animals were observed daily throughout the study period.
# PK samples were obtained in the following time points:
# On Day 0 and Day 1—time 0, 5 min post injection, 30 min post injection, 1 h post injection, 2 h post injection, 6 h post injection, 24 h post injection (on the following day)
# On Day 2, 5 min post injection, 30 min post injection, 1 h post injection, 2 h post injection, 6 h post injection
# Plasma samples for PK analysis have been send to Swiss BioQuant AG, Switzerland for further processing.
# Methodology used for the detection of KM-023 in minipigs plasma is described in above. In both animals dosed with test item, exposure to KM-023 was detected.
# [2] = test system: SLIGRL-NH2 itching mouse model; assay: SLIGRL-NH2 itching mouse model (Example 17); type: in vivo; settings: pre-treatment with either dose of oral KM-023
# [3] = design: species or system mice; settings: mouse, in vivo, po
# Protocol: At the beginning of the study, 3 mice were weight before compound treatment. Group of 3 mice received an increasing dose of KM-023 every 24 hours 1 mg/kg, 10 mg/kg, 30 mg/kg, 100 mg/kg, 500 mg/kg once daily, in a volume of 0.2 ml, administered orally. The mice were weighed daily before treatment.
# At the end of the experiment, the mice were sacrificed with CO2.
# [4] = test system: SLIGRL-NH2 (PAR2 agonist peptide) induced itching in mice; assay: Efficacy of oral KM-023 in SLIGRL-NH2 itching mouse model; type: in vivo; settings: for Decrease of number of scratches: 30 min before SLIGRL induction, 30 minutes post induction
# Source text: The aim of this study is to evaluate the efficacy of anti-itching activity of KM-023 in SLIGRL-NH2 (SEQ ID NO: 1) mouse itching model.
# Proteinase-activated receptors (PAR) are a group of G-protein coupled receptors which are activated by cleavage of their terminal sequence by serine proteinases. […] Thus, the administration of the murine PAR2 agonist peptide, SLIGRL-NH2 (SEQ ID NO: 1), is an known and acceptable model to assess anti-pruritic compounds in mice.
# 32 mice in good health status and corresponding to the specifications details above were included in the in vivo phase.
# The animals were weighed before treatment. Induction of itching was performed on animals by intradermal administration of SLIGRL-NH2 (SEQ ID NO: 1) peptide in neck (volume about 20 μL).
# Oral route was performed by oral gavage using plastic probe 30 min before induction with SLIGRL-NH2 (SEQ ID NO: 1) peptide.
# Animals were placed in plexiglass red walls observation devices (for simultaneous observations of 4 mice). Red walls permitted observations of animals by the operator without the possibility for animals to see the operator. Animals were placed in observation cages before induction for 20 to 30 minutes.
# Intradermal injections of SLIGRL (SEQ ID NO: 1) was performed on vigil animals in shaved neck and video recording was initiated immediately after injection for a duration of 30 minutes.
# Manual image analysis was performed on recorded movies.
# Scratching/itching bouts were counted on 6 time periods of 5 minutes (total of 30 min for each mouse).
# The scratches were counted at predefined time intervals of 5 minutes post induction and 30 minutes post induction.
# [5] = rat, in vivo
# Source text: The rats per group for either skin or CSF sample collection contains 9 rats.
# Animals were allocated randomly into the following treatment groups.
# Group 1: Control—2 untreated, naïve animals for the collection of blood, skin, and CSF at the point of euthanasia.
# The same 3 rats were allocated to each alternating time point of bleeding.
# Samples of plasma, skin and CSF were sent to Swiss BioQuant AG, Reinach, Switzerland for further analysis.
# The extravascular model was used for oral dosing. Sparse sampling option was used for plasma concentration.
# The following pharmacokinetic parameters were estimated from the plasma, skin and CSF concentration versus time curve:
# tmax Time to reach the maximum plasma concentration read directly from the individual plasma concentration-time curve.
# Cmax Maximum plasma concentration read directly from the individual plasma concentration-time curve.
# Cmax/doseCmax corrected for dose.
# AUC0-t Area under the plasma concentration-time curve from time point zero to last measurable concentration. AUC0-t was calculated according to the “linear up log down” trapezoidal rule.
# AUC0-8 h Area under the plasma concentration-time curve from time point zero to time point 8 h after dosing. AUC0-8 h was calculated according to the “linear up log down” trapezoidal rule.
# AUC0-8 h/dose AUC0-8 h corrected for dose
# [6] = test system: male C57BL/6J mice, AEW induced pruritus; assay: Acetone-ether-water (AEW) induced pruritus model in mice; settings: HC-030031 4 mg/mouse SC 5 min before recording; P=0.0005 vs Vehicle2
# [7] = test system: DS-Nh mice (TRPV3 Gly573Ser gain-of-function mutation); assay: Efficacy of KM-001 in DS-Nh mouse model (skin histology, dermatitis scoring); settings: topical ointment on cheek, Day 14, KM-001 1% and 0.3%, Tacrolimus 0.1%
# Protocol: Mice were identified by left ear punch. […] On Day −30, −23, −20, −14, −9, −2, 0, 3, 7, 10, 14, erythema and edema of the mice face have been scored on the right and left sides according to criteria in table 21 (Dermatitis scoring criteria).
# The viability, clinical signs and behavior were monitored daily. Body weight was recorded daily. […] Mice were monitored just and 7 hours after administration. Animals in all groups were sacrificed at Day 14 by exsanguination through abdominal vena cava under isoflurane.
# For skin samples, the skin at the inflammation site from both cheeks of the face were collected. For histological analyses, the skin was fixed in 4% paraformaldehyde for 24 hours. After fixation, these specimens were processed to paraffin embedding for H&E staining, MT staining and immunohistochemistry and toluidine blue staining.
# Skin sections taken from facial treated area of each mouse are fixed in paraffin and stained with Hematoxylin & Eosin.
smiles,measurement,setting,value
Cc1nc(C(=O)N2CCC(c3ccc(-c4ccccc4C4CC4)cc3CO)C2)ccc1O (centres unmarked) [KM-023],KM-023 concentrations at 24 h post-dose,[1],above 0.300 ng/mL
same,abnormal clinical signs,[1],No abnormal clinical signs were observed
same,bioavailability of the KM-023 formulation,[1],0.2-0.8%
same,blood exposure,[1],dose dependent blood exposure
same,tmax,[1],49.8 min
same,Half-time,[1]; iv,3.3 to 4.2 h
same,apparent maximum concentration time (tmax),[1]; iv,5 min
same,AUC0-8 h,"[1]; iv, 1 mg/kg",314 ng·h/mL
same,AUC0-h,"[1]; iv, 1 mg/kg",320 ng·h/mL
same,"AUC0-t/dose (lower part of table, beside AUC0-h)","[1]; iv, 1 mg/kg",320 (h * ng/mL)/(mg/kg)
same,"AUC0-t/dose (upper part of table, beside AUC0-8 h)","[1]; iv, 1 mg/kg",314 (h * ng/mL)/(mg/kg)
same,C0,"[1]; iv, 1 mg/kg",422 ng/mL
same,Vz/F,"[1]; iv, 1 mg/kg",19100 mL/kg
same,AUC0-8 h,"[1]; iv, 5 mg/kg",1300 ng·h/mL
same,AUC0-h,"[1]; iv, 5 mg/kg",1300 ng·h/mL
same,"AUC0-t/dose (lower part of table, beside AUC0-h)","[1]; iv, 5 mg/kg",261 (h * ng/mL)/(mg/kg)
same,"AUC0-t/dose (upper part of table, beside AUC0-8 h)","[1]; iv, 5 mg/kg",260 (h * ng/mL)/(mg/kg)
same,C0,"[1]; iv, 5 mg/kg",2340 ng/mL
same,Vz/F,"[1]; iv, 5 mg/kg",18200 mL/kg
same,AUC0-8 h,"[1]; iv, 10 mg/kg",2800 ng·h/mL
same,AUC0-h,"[1]; iv, 10 mg/kg",2910 ng·h/mL
same,"AUC0-t/dose (lower part of table, beside AUC0-h)","[1]; iv, 10 mg/kg",291 (h * ng/mL)/(mg/kg)
same,"AUC0-t/dose (upper part of table, beside AUC0-8 h)","[1]; iv, 10 mg/kg",280 (h * ng/mL)/(mg/kg)
same,C0,"[1]; iv, 10 mg/kg",6880 ng/mL
same,time of maximum concentration (tmax),[1]; po,5 to 30 min
same,AUC0-24 h,"[1]; po, 1 mg/kg",0.442 ng·h/mL
same,AUC0-t/dose,"[1]; po, 1 mg/kg",0.442 kg·ng·h/mL/mg
same,AUC0-∞,"[1]; po, 1 mg/kg",0.596 ng·h/mL
same,AUC0-24 h,"[1]; po, 5 mg/kg",1.31 ng·h/mL
same,AUC0-t/dose,"[1]; po, 5 mg/kg",0.262 kg·ng·h/mL/mg
same,AUC0-∞,"[1]; po, 5 mg/kg",2.01 ng·h/mL
same,AUC0-24 h,"[1]; po, 10 mg/kg",23.2 ng·h/mL
same,AUC0-t,"[1]; po, 10 mg/kg",31.2 ng·h/mL
same,AUC0-t/dose,"[1]; po, 10 mg/kg",2.32 kg·ng·h/mL/mg
same,AUC0-∞,"[1]; po, 10 mg/kg",23.2 ng·h/mL
same,AUC0-∞/dose,"[1]; po, 10 mg/kg",3.12 kg·ng·h/mL/mg
same,number of scratches observed 30 minutes post induction,[2],decrease the number of scratches
same,Maximal Feasible Dose (MFD),[3],500 mg/kg
same,Decrease of number of scratches,[4]; oral KM-023 1 mg/kg group,56.25%
same,Decrease of number of scratches,[4]; oral KM-023 10 mg/kg group,68.8%
same,Anti-itching effect,"[4]; oral pretreatment, SLIGRL induced scratch behaviour",anti-pruritic activity
same,Dose proportionality of plasma AUC0-8 h,[5],roughly more than dose proportional manner
same,BBB crossing / CNS entry,[5]; po,does not cross BBB
same,Distribution in CSF,[5]; po,did not distribute well in CSF
same,Distribution in skin,[5]; po,distributed well in skin
same,Systemic absorption,[5]; po,acceptable systemic absorption
same,tmax in plasma,"[5]; po, 20 mg/kg",15 min
same,Exposure ratio CSF/plasma of AUC0-8 h,"[5]; po, 60 mg/kg",0.0150-0.0162
same,Exposure ratio skin/plasma of AUC0-8 h,"[5]; po, 60 mg/kg",0.437-0.816
same,tmax,"[5]; po, 60 mg/kg",0.250
same,tmax in CSF,"[5]; po, 60 mg/kg",15 min
same,tmax in plasma,"[5]; po, 60 mg/kg",30 min
same,tmax in skin,"[5]; po, 60 mg/kg",15 min to 1-hour
CC(C)c1ccc(NC(=O)Cn2cnc3c2c(=O)n(C)c(=O)n3C)cc1 [HC-030031],scratching bouts,[6],significantly decreased
same,scratching time,[6],significantly decreased
"C=CC[C@@H]1/C=C(\C)C[C@H](C)C[C@H](OC)[C@H]2O[C@@](O)(C(=O)C(=O)N3CCCC[C@H]3C(=O)O[C@H](/C(C)=C/[C@@H]3CC[C@@H](O)[C@H](OC)C3)[C@H](C)[C@@H](O)CC1=O)[C@H](C)C[C@@H]2OC [Tacrolimus, reference compound]","Skin pathology (H&E histology: epidermis, inflammation)",[7],only slightly improved skin pathology
